Source: patent US8263606B2 (Xenon Pharmaceuticals Inc., priority 2008, dated 2012)

Assays:
[1] = system: inactivated state of the channel of interest (sodium channel); assay: Electrophysiological assay (whole cell voltage clamp, in vitro); assay type: cell-based; details: affinity for the inactivated state of the channel of interest
Procedure: Cells expressing the channel of interest are cultured in DMEM growth media (Gibco) with 0.5 mg/mL G418, +/−1% PSG, and 10% heat-inactivated fetal bovine serum at 37° C. and 5% CO2. For electrophysiological recordings, cells are plated on 10 mm dishes.
Whole cell recordings are examined by established methods of whole cell voltage clamp (Bean et al., op. cit.) using an Axopatch 200B amplifier and Clampex software (Axon Instruments, Union City, Calif.). All experiments are performed at ambient temperature. Electrodes are fire-polished to resistances of 2-4 Mohms Voltage errors and capacitance artifacts are minimized by series resistance compensation and capacitance compensation, respectively. Data are acquired at 40 kHz and filtered at 5 kHz. The external (bath) solution consists of: NaCl (140 mM), KCl (5 mM), CaCl2 (2 mM), MgCl2 (1 mM), HEPES (10 mM) at pH 7.4. The internal (pipette) solution consists of (in mM): NaCl (5), CaCl2 (0.1), MgCl2 (2), CsCl (10), CsF (120), HEPES (10), EGTA (10), at pH 7.2.
To estimate the steady-state affinity of compounds for the resting and inactivated state of the channel (Kr and Ki, respectively), 12.5 ms test pulses to depolarizing voltages from −60 to +90 mV from a holding potential of −120 m V is used to construct current-voltage relationships (I-V curves). A voltage near the peak of the IV-curve (−30 to 0 m V) is used as the test pulse throughout the remainder of the experiment. Steady-state inactivation (availability) curves are then constructed by measuring the current activated during a 8.75 ms test pulse following 1 second conditioning pulses to potentials ranging from −120 to −10 m V.
The steady-state voltage-dependence of binding of a compound to a sodium channel is determined by measuring the blockage of the ionic current at two holding potentials. Binding to rested-state channels is determined by using a holding potential of −120 mV, so that maximal availability is achieved. Binding to inactivated-state channels is evaluated at a holding potential such that only 10% of the channels are available to open. The membrane potential is held at this voltage for at least 10 seconds so that drug binding can equilibrate.
The apparent dissociation constant at each voltage is calculated with the equation:
[formula] where Kd is the dissociation constant (either Kr or Ki), and [Drug] is the concentration of the test compound.
The Example numbers provided in Table 3 correspond to the Examples herein: […]

CYP3A4 = CYP3A4 (Homo sapiens, UniProt P08684); assay: Cytochrome P450 (CYP450) Inhibition Assay, CYP3A4 (Vivid fluorescence, BOMCC substrate); details: human, P450 Baculosomes (recombinant CYP3A4), probe BOMCC (Vivid substrate)
sodium channel = assay: Guanidine influx assay (14C-guanidine radiotracer flux, in vitro); assay type: cell-based, human or rat; details: guanidine influx assay using a known cell line that expresses a sodium channel
In short: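 Test agents at half-step dilutions around 1 μM are added to plated cells in low-sodium HEPES buffer, then an aconitine/14C-guanidine mixture; after ambient-temperature incubation, cells are washed and counted. IC50 comes from a sigmoidal fit.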

CYP3A4, sequence (P08684 whole entry): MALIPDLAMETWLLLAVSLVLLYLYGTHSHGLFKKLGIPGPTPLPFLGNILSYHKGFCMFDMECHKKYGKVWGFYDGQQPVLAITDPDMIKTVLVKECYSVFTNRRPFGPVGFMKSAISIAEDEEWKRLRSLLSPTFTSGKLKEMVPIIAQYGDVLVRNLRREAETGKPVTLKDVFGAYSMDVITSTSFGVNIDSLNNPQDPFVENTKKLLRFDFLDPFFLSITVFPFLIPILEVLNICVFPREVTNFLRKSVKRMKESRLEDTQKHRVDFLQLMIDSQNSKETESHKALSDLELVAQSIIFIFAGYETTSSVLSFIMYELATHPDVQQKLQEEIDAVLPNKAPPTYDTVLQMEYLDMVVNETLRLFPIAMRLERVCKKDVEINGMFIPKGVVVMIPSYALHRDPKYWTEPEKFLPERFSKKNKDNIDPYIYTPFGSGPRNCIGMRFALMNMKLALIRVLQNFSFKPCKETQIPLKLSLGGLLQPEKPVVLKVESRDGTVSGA

| SMILES | Ki [1] | inhibition at 10 µM (CYP3A4) | IC50 (sodium channel; activity level class) | IC50 (sodium channel) | melting point |
| --- | --- | --- | --- | --- | --- |
| CCCCCN1C(=O)[C@]2(COc3cc4c(cc32)OCCO4)c2ccccc21 [Example 7.4, (R)-1′-pentyl-2,3-dihydrospiro[furo[2,3-g][1,4]benzodioxine-8,3′-indol]-2′(1′H)-one] | > 300 nM | > 50% | – | – | – |
| O=C1N(CC2COCCO2)c2ccccc2C12COc1cc3c(cc12)CCO3 (centres unmarked) [Example 4.8, 1′-(1,4-dioxan-2-ylmethyl)-5,6-dihydrospiro[benzo[1,2-b:5,4-b′]difuran-3,3′-indol]-2′(1′H)-one] | > 300 nM | < 50% | 1 to 100 nM | – | – |
| O=C1N(C[C@H]2CCCO2)c2ccccc2[C@@]12COc1cc3c(cc12)CCO3 [Example 11.67, (3R)-1′-[(2R)-tetrahydrofuran-2-ylmethyl]-5,6-dihydrospiro[benzo[1,2-b:5,4-b′]difuran-3,3′-indol]-2′(1′H)-one] | > 300 nM | < 50% | – | 1000 to 10000 nM | – |
| CN1C(=O)C2(COc3cc4c(cc32)OC(F)(F)O4)c2ccccc21 (centres unmarked) [Example 2.35] | > 300 nM | > 50% | 1000 to 10000 nM | – | – |
| O=C1N(C[C@H]2CCCO2)c2cccc(-c3cncnc3)c2C12COc1cc3c(cc12)CCO3 (stereo partly drawn) [Example 16.10, 4′-pyrimidin-5-yl-1′-[(2R)-tetrahydrofuran-2-ylmethyl]-5,6-dihydrospiro[benzo[1,2-b:5,4-b′]difuran-3,3′-indol]-2′(1′H)-one] | > 300 nM | > 50% | – | 1000 to 10000 nM | – |
| O=C1N(Cc2ncccc2C(F)(F)F)c2ccccc2[C@@]12COc1cc3c(cc12)OCCO3 [Example 7.15] | > 300 nM | < 50% | 100 to 1000 nM | – | – |
| COCCCCN1C(=O)C2(COc3cc4c(cc32)OCCO4)c2ccccc21 (centres unmarked) [Example 7.8] | < 300 nM | < 50% | – | – | – |
| O=C1N(C[C@H]2CCCO2)c2ccccc2C12COc1cc3c(cc12)CCO3 (stereo partly drawn) [Example 4.3, 1′-[(2R)-tetrahydrofuran-2-ylmethyl]-5,6-dihydrospiro[benzo[1,2-b:5,4-b′]difuran-3,3′-indol]-2′(1′H)-one] | > 300 nM | < 50% | 1 to 100 nM | – | – |
| O=C1N(Cc2ncccc2C(F)(F)F)c2ccccc2C12OCOc1cc3c(cc12)OCCO3 (centres unmarked) [Example 2.54, 1′-{[3-(trifluoromethyl)pyridin-2-yl]methyl}-7,8-dihyrdospiro[1,4-dioxino[2,3-g][1,3]benzodioxine-4,3′-indol]-2′(1′H)-one] | > 300 nM | < 50% | – | – | – |
| O=C1N(Cc2cccnc2)c2ccccc2C12COc1cc3c(cc12)OCCO3 (centres unmarked) [Example 10.1, 1′-(pyridin-3-ylmethyl)-2,3-dihydrospiro[furo[2,3-g][1,4]benzodioxine-8,3′-indol]-2′(1′H)-one] | > 300 nM | – | – | – | – |
| O=C1N(C[C@H]2CCCO2)c2ccccc2[C@]12COc1cc3c(cc12)CCO3 [Example 11.66, (3S)-1′-[(2R)-tetrahydrofuran-2-ylmethyl]-5,6-dihydrospiro[benzo[1,2-b:5,4-b′]difuran-3,3′-indol]-2′(1′H)-one] | > 300 nM | – | – | 1 to 100 nM | – |
| CN1C(=O)C2(COc3cc4c(cc32)OCCO4)c2c(Oc3ccccc3)cccc21 (centres unmarked) [Example 16.80, 1′-methyl-4-phenoxy-2,3-dihydrospiro[furo[2,3-g][1,4]benzodioxine-8,3′-indol]-2′(1′H)-one] | < 300 nM | > 50% | – | – | – |
| CCC(CC)CNC(=O)c1ccc(CN2C(=O)C3(COc4cc5c(cc43)CCO5)c3ccccc32)cc1 (centres unmarked) [Example 12.45, N-(2-ethylbutyl)-4-[(2′-oxo-5,6-dihydrospiro[benzo[1,2-b:5,4-b′]difuran-3,3′-indol]-1′(2′H)-yl)methyl]benzamide] | – | < 50% | – | 1000 to 10000 nM | 211 to 213 °C |
| O=C1N(Cc2cccnc2)c2ccccc2C12COc1cc(F)c(F)cc12 (centres unmarked) [Example 9.31, 5,6-difluoro-1′-(pyridin-3-ylmethyl)spiro[1-benzofuran-3,3′-indol]-2′(1′H)-one] | – | > 50% | 1000 to 10000 nM | – | 175 to 177 °C |
| O=C1N(Cc2cccnn2)c2ccccc2C12COc1cc3c(cc12)CCO3 (centres unmarked) [Example 9.9, 1′-(pyridazin-3-ylmethyl)-5,6-dihydrospiro[benzo[1,2-b:5,4-b′]difuran-3,3′-indol]-2′(1′H)-one] | – | < 50% | 100 to 1000 nM | – | 81 to 82 °C |
| N#Cc1cc2c(cc1O)OCC21C(=O)N(C[C@H]2CCCO2)c2ccccc21 (stereo partly drawn) [Example 45, 6-hydroxy-2′-oxo-1′-[(2R)-tetrahydrofuran-2-ylmethyl]-1′,2′-dihydrospiro[1-benzofuran-3,3′-indole]-5-carbonitrile] | – | < 50% | – | 1000 to 10000 nM | 218 to 221 °C |
| CC(C)(C)OC(=O)Nc1ccc(CN2C(=O)C3(COc4cc5c(cc43)OCCO5)c3ccccc32)cn1 (centres unmarked) [Example 9.40, tert-butyl {5-[(2′-oxo-2,3-dihydrospiro[furo[2,3-g][1,4]benzodioxine-8,3′-indol]-1′(2′H)-yl)methyl]pyridin-2-yl}carbamate] | – | < 50% | 100 to 1000 nM | – | 238 to 239 °C |
| O=C1N(c2ccc(F)cc2)c2ccccc2C12COc1cc3c(cc12)OCCO3 (centres unmarked) [Example 2.45, 1′-(4-fluorophenyl)-2,3-dihydrospiro[furo[2,3-g][1,4]benzodioxine-8,3′-indol]-2′(1′H)-one] | – | < 50% | 1 to 100 nM | – | 210 to 212 °C |
| Cc1nc(-c2cccc(CN3C(=O)C4(COc5cc6c(cc54)OCCO6)c4ccccc43)c2)no1 (centres unmarked) [Example 11.83, 1′-[3-(5-methyl-1,2,4-oxadiazol-3-yl)benzyl]-2,3-dihydrospiro[furo[2,3-g][1,4]benzodioxine-8,3′-indol]-2′(1′H)-one] | – | > 50% | – | 1 to 100 nM | 90 to 95 °C |
| COC(=O)c1ccc(CN2C(=O)C3(COc4cc5c(cc43)CCO5)c3ccccc32)cc1 (centres unmarked) [Example 9.16, methyl 4-[(2′-oxo-5,6-dihydrospiro[benzo[1,2-b:5,4-b′]difuran-3,3′-indol]-1′(2′H)-yl)methyl]benzoate] | – | < 50% | 1 to 100 nM | – | 136 to 140 °C |
| CC(C)NC(=O)N1CCCC(CCN2C(=O)C3(COc4cc5c(cc43)OCO5)c3ccccc32)C1 (centres unmarked) [Example 11.73, N-isopropyl-3-[2-(2′-oxospiro[furo[2,3-f][1,3]benzodioxole-7,3′-indol]-1′(2′H)-yl)ethyl]piperidine-1-carboxamide] | – | > 50% | – | 100 to 1000 nM | 206 to 208 °C |
| CC(C)c1ncc(CN2C(=O)C3(COc4cc5c(cc43)OCO5)c3cccc(C(F)(F)F)c32)s1 (centres unmarked) [Example 4.76, 1′-[(2-isopropyl-1,3-thiazol-5-yl)methyl]-7′-(trifluoromethyl)spiro[furo[2,3-f][1,3]benzodioxole-7,3′-indol]-2′(1′H)-one] | – | > 50% | 100 to 1000 nM | – | 101 to 103 °C |
| O=C1N(Cc2ccccn2)c2cccc(-c3cnc4ccccc4c3)c2C12COc1cc3c(cc12)OCCO3 (centres unmarked) [Example 4.102, 1-(pyridin-2-ylmethyl)-4′-quinolin-3-yl-2,3-dihydrospiro[furo[2,3-g][1,4]benzodioxine-8,3′-indol]-2′(1′H)-one] | – | > 50% | 100 to 1000 nM | – | 228 to 230 °C |
